From patent EP0001940A1, “Derivatives of eburnamenine, their preparation and their therapeutical application” (SYNTHELABO, priority 1977, dated 1979)

Tested on: souris de souche CDl
Test: Hypobaric anoxia survival time test (Anoxie hypobare)
Type: in vivo
Settings: Mus musculus, ip; mean active dose = dose increasing survival time by 100% vs controls, determined graphically; mice, i.p. before the test; 190 mm Hg (5,25% oxygen); read-out: Anoxie hypobare DAM - i.p.
Source text: Des souris de souche CDl sont maintenues dans une atmosphère appauvrie en oxygène, par réalisation d'un vide partiel (190mm de mercure correspondant à 5,25% d'oxygène).
Le temps de survie des animaux est noté. Ce temps est augmenté par les agents capables de favoriser l'oxygénation tissulaire et en particulier cérébrale. Les composés étudiés sont administrés, à plusieurs doses, par voie intrapéritonéale, […] avant l'essai. Les pourcentages d'augmentation du temps de survie par rapport aux valeurs obtenues chez les animaux témoins sont calculés. La dose active moyenne (DAM), dose qui augmente le temps de survie de 100% est déterminée graphiquement
Les résultats sont indiqués dans le tableau II suivant pour un nombre représentatif de composés.

| SMILES | ED (100% increase in survival time) |
| --- | --- |
| CCC12CCCN3CCc4c(n(c5cccc(Br)c45)C(C(=O)OC)C1)C32 (stereo not drawn) [compound 1, bromo-9 désoxyvincamine] | 8 mg/kg |
| CCC12CCCN3CCc4c(n(c5ccc(Br)cc45)C(C(=O)OC)C1)C32 (stereo not drawn) [compound 2, bromo-10 désoxyvincamine] | 3 mg/kg |
| CCOC(=O)C1CC2(CC)CCCN3CCc4c(n1c1cccc(Br)c41)C32 (stereo not drawn) [compound 3] | 8 mg/kg |
| CCOC(=O)C1CC2(CC)CCCN3CCc4c(n1c1ccc(Br)cc41)C32 (stereo not drawn) [compound 4] | 1 mg/kg |
| CCC12CCCN3CCc4c(n(c5ccc(Br)cc45)C(C(=O)OC(C)C)C1)C32 (stereo not drawn) [compound 5] | 3 mg/kg |
| CCC12CCCN3CCc4c(n(c5ccc(Br)cc45)C(C(N)=O)C1)C32 (stereo not drawn) [compound 6, Bromo-10 désoxyvincaminamide] | 1 mg/kg |
| CCC12CCCN3CCc4c(n(c5ccc(Br)cc45)C(C(=O)NC)C1)C32 (stereo not drawn) [compound 7] | 2 mg/kg |
| CCN(CC)C(=O)C1CC2(CC)CCCN3CCc4c(n1c1ccc(Br)cc41)C32 (stereo not drawn) [compound 8] | 4 mg/kg |
| CCC12CCCN3CCc4c(n(c5ccc(Br)cc45)C(C(=O)NC4CC4)C1)C32 (stereo not drawn) [compound 9] | 0.5 to 1 mg/kg |
| CCCCOC(=O)C1(O)CC2(CC)CCCN3CCc4c(n1c1ccc(Br)cc41)C32 (stereo not drawn) [compound 13, bromo-10 vincaminate de n-butyle] | 3 to 4 mg/kg |
| CCOC(=O)C1(O)CC2(CC)CCCN3CCc4c(n1c1ccc(Br)cc41)C32 (stereo not drawn) [compound 14] | 3 mg/kg |
| CCOC(=O)C1=CC2(CC)CCCN3CCc4c(n1c1ccc(Br)cc41)C32 (stereo not drawn) [compound 18] | 7 mg/kg |
